Assay [1] deals with PCP receptor. Put plainly: PCP receptor affinity of IDDC analogs vs. [3H]MK-801 in rat brain membrane (Example 10, Table 2). Conditions: read-out: PCP Receptor Affinity IC50 in Rat Brain Membrane vs. [3H]MK-801, MEAN.
In assay [2] the target is PCP receptor. Put plainly: PCP receptor binding against 3H-MK-801 (Example 5, Table 1). Conditions: for IC50: vs. 3H-MK-801, ± sem (n). Here is the method:
The PCP receptor binding properties of various compounds of the invention against ^3 H-5-methyl-10,11-dihydro-5H-dibenzo[a,d]cycloheptene-5,10-imine (^3 H-MK-801) were determined.

For assay [3], the system named is NMDA receptor-ion channel complex. Put plainly: Whole-cell patch clamp: block of NMDA-induced currents on cultured rat hippocampal neurons (Example 6). Type of assay: cell-based. Conditions: for inward current on serial applications with NMDA: 10 uM compound with NMDA; for recovery from inhibition of NMDA current: after 10 uM compound. On the procedure:
In the electrophysiological studies the compounds are evaluated with respect to their ability to block the ion channel of the NMDA receptor channel complex and thereby inhibit Ca^2+ and Na^+ ion flow into the nerve cell. Initially, the ion channels are opened by activating the NMDA receptor. Ion flow is determined by measuring the passage of electrical current, i.e., a use-dependent decrease in electrical current indicates blocking of the ion channel due to binding of a ligand at a site within the channel.
Hippocampal neurons were obtained from the CA1 region of the hippocampus from 1-3 day-old-newborn rats (Long-Evans). Small blocks of tissue ([…]1mm^3) were incubated in papain (20 units ml^-1; Worthington-Cooper) for 30 minutes. The tissue was dissociated into a single cell suspension by trituration with a fire-polished Pasteur pipette in complete growth medium (Earle's MEM, 20 mM glucose, 50 units/ml penicillin/streptomycin, 5% heat-inactivated fetal calf serum, Serum Extender from Collaborative Research) containing 2.5 mg/ml bovine serum albumin and 2.5 mg/ml trypsin inhibitor (Sigma). The cells were plated onto glass coverslips coated with collagen/poly-D-lysine. Cultures were fed every 3 days by replacing haft the volume of medium. Arabinosylcytosine (5×10^-6 M) was added to the cultures for 1 or 2 days during the first week after plating to suppress the proliferation of non-neuronal cells.
All electrophysiology experiments were performed with the whole-cell mode of patch clamp recording [Hamill, O. D., Marty, A., Neher, E., Sakman, B., and Sigworth, F. J., Pflugers Arch. 391:85-100 (1981)] from neurons grown for 1-3 weeks in culture. Agonists and agonist/antagonist combinations were applied by a U-tube mol (Fenwick et al, J. Physiol. 331:577-597 (1982)) to neurons in whole-cell experiments. The external solution contained (in mM) NaCl 140, KCl 3.5, CaCl2 1, glucose 5, picrotoxinin 0.02, tetrodotoxin (TTX) 5×10^-4, and N-2-hydroxyethyl-piperazine-N'-2-ethanesulfonic acid (HEPES) 10. The pH of this solution was adjusted to 7.4 with NaOH. The internal (patch electrode) solution contained (mM) Cs-methanesulfonate 120, CsCl 10, ethyleneglycol-bis-(β-aminoethylether)-N,N,N',N'-tetraacetic acid (EGTA) 10, HEPES 10 (pH adjusted to 7.0 with CsOH). Membrane current was filtered at 4000 Hz (-3dB; 8-pole Bessel) and recorded on magnetic tape for later analysis. Experiments were performed at room temperature (20°-25° C.). [Sources of chemicals: N-methyl-D-aspartate, Cambridge Research Biochemicals; pirotoxinin, Sigma Chemical Company; salts for recording solutions, Aldrich (Gold Label) or Alfa (Puratronic). [^3 H]Kainate and [3H]CPP and [^3 H]AMPA were purchased from Dupont/NEN (Boston, Mass.)].
Repetitive applications (every 30 s) to the same cell produced currents which varied less than 5% over a period of at least 30 minutes.
A general note: In patch-clamp work, channel activity is measured electrically.

The values below come from US5688789A, “PCP receptor ligands and the use thereof” (State of Oregon, acting by and through the Oregon State …, priority 1995, dated 1997).

SMILES strings stand for the structures.

As a reminder, the IC50 is the midpoint of a concentration-inhibition curve. With `COc1ccc2c(c1)C1CNC2Cc2ccccc21` (racemic) [(±)-7-OMe-IDDC, 7-Methoxy-5-(iminomethano)-10,11-dihydro-5H-dibenzo-[a,d]cycloheptene], on PCP receptor [1], the IC50 turned out to be 0.332 µM.

As to `Ic1ccc2c(c1)C1CNC(C2)c2ccccc21` (racemic) [(±)-3-Iodo-IDDC, 3-iodo-5-(iminomethano)-10,11-dihydro-5H-dibenzo-[a,d]cycloheptene], the IC50 on PCP receptor [1] stood at 0.16 µM.

On to `COc1ccc2c(c1)C1CNC2Cc2ccc(Cl)cc21` (racemic) [(±)-3-Cl-7-OMe-IDDC, 3-chloro-7-methoxy-5-(iminomethano)-10,11-dihydro-5H-dibenzo[a,d]cycloheptene], for which the IC50 at PCP receptor [1] was found to be 0.113 µM.

Regarding `CN1CC2c3cc(Br)ccc3CC1c1ccccc12` (racemic) [(±)-3-Br--N--Me-IDDC, 3-bromo-N-methyl-5-(iminomethano)-10,11-dihydro-5H-dibenzo[a,d]cycloheptene], on PCP receptor [1], the IC50 is 1.04 µM.

Turning to `Nc1ccc2c(c1)C1CNC(C2)c2ccccc21` (racemic) [(±)-3-NH2-IDDC, 3-amino-5-(iminomethano)-10,11-dihydro-5H-dibenzo[a,d]cycloheptene], the IC50 on PCP receptor [1] turned out to be 0.486 µM.

As for `Clc1ccc2c(c1)C1CNC(C2)c2ccccc21` (single isomer, unassigned; (+)) [(+)-3-Chloro-IDDC, (+) 3-Chloro-5-(iminomethano)-10,11-dihydro-5H-dibenzo-[a,d]cycloheptene], the IC50 at PCP receptor [1] worked out at 0.014 µM.

As for `Clc1ccc2c(c1)C1CNC(C2)c2ccccc21` (racemic) [(±)-3-Cl-IDDC], at PCP receptor [1], the IC50 was 0.0642 µM.

Consider `COc1ccc2c(c1)C1CN(C)C2Cc2ccc(Br)cc21` (racemic) [(±)-3-Br-7-OMe--N--Me-IDDC, 3-Bromo-7-methoxy-N-methyl-5-(iminomethano)-10,11-dihydro-5H-dibenzo[a,d]cycloheptene], for which the IC50 on PCP receptor [1] was 0.643 µM.

Regarding `CC12CNC(Cc3ccccc31)c1ccccc12` (racemic) [(±)-5-Me-IDDC, 5-methyl-10,5-(iminomethano)-10,11-dihydro-5H-dibenzo[a,d]cycloheptene], the IC50 on PCP receptor [2] was found to be 0.125 µM; at PCP receptor [1] it was 0.119 µM.

Consider `COc1ccc2c(c1)C1CNC(C2)c2ccccc21` (racemic) [(±)-3-OMe-IDDC, 3-methoxy-5-(iminomethano)-10,11-dihydro-5H-dibenzo-[a,d]cycloheptane], for which the IC50 on PCP receptor [1] stood at 0.168 µM.

`CC12NC(Cc3ccccc31)c1ccccc12` (single isomer, unassigned) [MK-801, 5-methyl-10,11-dihydro-5H-dibenzo[a,d]cycloheptene-5,10-imine, reference compound]: in assay [3], the “inward current on serial applications with NMDA” value is “the inward current became progressively smaller with serial applications”; the “recovery from inhibition of NMDA current” value was “required repeated applications of NMDA alone and was speeded by holding the membrane potential at positive voltages”.

As for `Brc1ccc2c(c1)C1CNC(C2)c2ccccc21` (racemic) [(±)-3-Br-IDDC, 3-bromo-5-(iminomethano)-10,11-dihydro-5H-dibenzo-[a,d]cycloheptene], the IC50 on PCP receptor [1] is 0.041 µM.

In the case of `Fc1ccc2c(c1)C1CNC(C2)c2ccccc21` (racemic) [(±)-3-F-IDDC], on PCP receptor [1], the IC50 worked out at 0.0294 µM.

For `CN1C[C@H]2c3ccccc3C[C@@H]1c1ccccc12` [(+)-N--Me-IDDC, N-methyl-10,5-(iminomethano)-10,11-dihydro-5H-dibenzo[a,d]cycloheptene], the “affinity for the PCP receptor compared with MK-801” value in the assay with PCP receptor [2] (relative to MK-801) was “lower affinity than MK-801 for the PCP receptor”. The molecule also displayed an IC50 at PCP receptor [2] of 0.8 ± 0.009 µM. Also, the IC50 on PCP receptor [1] worked out at 0.0654 µM. Also, in assay [3], the “inward current on serial applications with NMDA” value was “Serial applications evoked progressively smaller currents” and the “recovery from inhibition of NMDA current” value is on record as “reversed only with prolonged or repeated application of NMDA”. Besides, the “rate of recovery from blockade compared with MK-801” value in assay [3] (10 uM, relative to MK-801) is reported as “somewhat more rapid than the rate of recovery of responses following MK-801”. In addition, the “inhibition of NMDA current” value in assay [3] (10 uM, 50 uM NMDA + 1 uM glycine, -60 mV) was “inhibited the NMDA current in a use-dependent and voltage-dependent manner”.

With `COc1ccc2c(c1)C1CNC2Cc2ccc(Br)cc21` (racemic) [(±)-3-Br-7-OMe-IDDC, 3-bromo-7-methoxy-5-(iminomethano)-10,11-dihydro-5H-dibenzo[a,d]cycloheptene], the IC50 at PCP receptor [1] was found to be 0.114 µM.

For the molecule `Fc1ccc2c(c1)C1CNC(C2)c2ccccc21` (single isomer, unassigned; (+)) [(+)-3-Fluoro-IDDC, (+)-3-fluoro-5-(iminomethano)-10,11-dihydro-5H-dibenzo-[a,d]cycloheptene], at PCP receptor [1], the IC50 stood at 0.018 µM.

For `Clc1ccc2c(c1)C1CNC(C2)c2ccccc21` (single isomer, unassigned; (-)) [(-)-3-Chloro-IDDC, (-)-3-Chloro-5-(iminomethano)-10,11-dihydro-5H-dibenzo-[a,d]cycloheptene], the IC50 on PCP receptor [1] was determined as 0.11 µM.

Turning to `Clc1ccc2c(c1)C1CNC2Cc2ccccc21` (racemic) [(±)-7-Cl-IDDC, 7-Chloro-5-(iminomethano)-10,11-dihydro-5H-dibenzo-[a,d]cycloheptene], on PCP receptor [1], the IC50 amounted to 0.69 µM.

Regarding `CN[C@H](CC(=O)O)C(=O)O` [NMDA, N-methyl-D-aspartate, reference compound], in assay [3] (50 uM NMDA + 1 uM glycine, three second applications, -60 mV), the inward whole-cell current is 100-1000 pA.
